In patent US10167272B2, “Muscarinic agonists” (Heptares Therapeutics Limited, priority 2015, dated 2019):

Key:
[1] = test system: rats; assay: d-amphetamine-induced hyperactivity in rats; format: in vivo, rat; details: positive control dose, previously observed
Description: Effect of a Novel Test Compound and Xanomeline on d-Amphetamine-Induced Hyperactivity in Rats
The aim of the study is to examine the effect of a novel test compound on d-amphetamine induced hyperactivity in rats. Schizophrenia is a complex multifactorial disease that cannot be fully represented by a single experimental procedure. Antipsychotic-like behaviour was assessed in rats by the inhibition of hyperactivity (or hyperlocomotion) elicited by d-amphetamine. This procedure is sensitive to clinically relevant dopamine receptor antagonists and is therefore considered suitable for comparing muscarinic agonists that influence dopaminergic signalling. […] Statistical analysis typically involved three-way analysis of covariance or robust regression with treatment, day and rack as factors and activity during the 30 minutes prior to treatment as a covariate, followed by appropriate multiple comparison tests. A P value of <0.05 was considered statistically significant and is marked accordingly in all subsequent figures.

[2] = biological target: T1, human muscarinic M3 receptor (Homo sapiens, UniProt P20309); assay: Alphascreen Surefire phospho-ERK1/2 functional assay, M3; format: cell-based; details: phospho-ERK1/2; for EC50: CHO cells stably expressing human M3, read-out: pEC50 M3 (converted); for Emax: CHO, read-out: % Emax cf. ACh (M3), CHO cells stably expressing human M3, relative to ACh
T1 construct: expressed in transfected cells
T1 sequence (P20309 whole entry): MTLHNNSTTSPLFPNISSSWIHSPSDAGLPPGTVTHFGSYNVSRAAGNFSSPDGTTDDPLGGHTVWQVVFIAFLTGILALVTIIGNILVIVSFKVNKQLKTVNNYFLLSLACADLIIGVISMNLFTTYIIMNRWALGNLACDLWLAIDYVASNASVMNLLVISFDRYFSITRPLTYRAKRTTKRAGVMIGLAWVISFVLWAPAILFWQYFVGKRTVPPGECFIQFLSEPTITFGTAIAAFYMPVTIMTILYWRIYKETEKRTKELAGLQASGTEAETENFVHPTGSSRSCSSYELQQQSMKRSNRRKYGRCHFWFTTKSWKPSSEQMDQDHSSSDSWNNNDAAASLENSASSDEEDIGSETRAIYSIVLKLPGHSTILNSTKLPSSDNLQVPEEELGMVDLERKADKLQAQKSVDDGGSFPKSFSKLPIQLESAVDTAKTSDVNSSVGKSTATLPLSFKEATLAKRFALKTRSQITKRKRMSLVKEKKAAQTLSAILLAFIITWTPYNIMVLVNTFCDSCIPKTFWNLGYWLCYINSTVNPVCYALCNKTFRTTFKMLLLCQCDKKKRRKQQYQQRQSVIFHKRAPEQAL
Summary of the method: (§1)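 CHO cells stably expressing human M1, M2 or M3 receptor, serum-starved overnight, were stimulated with agonist for 5 min at 37 °C. Cells were then lysed and ERK1/2 phosphorylation detected by AlphaScreen SureFire.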

[3] = biological target: T2, human muscarinic M1 receptor (Homo sapiens, UniProt P11229); assay: Alphascreen Surefire phospho-ERK1/2 functional assay, M1; format: cell-based; details: phospho-ERK1/2; for EC50 / % Emax cf. ACh (M1): CHO cells stably expressing human M1; for EC50: read-out: pEC50 M1 (converted); for % Emax cf. ACh (M1) / Emax: relative to ACh; for Emax: CHO, read-out: % Emax cf. ACh (M1), CHO cells stably expressing human M1
T2 sequence (P11229 1-460): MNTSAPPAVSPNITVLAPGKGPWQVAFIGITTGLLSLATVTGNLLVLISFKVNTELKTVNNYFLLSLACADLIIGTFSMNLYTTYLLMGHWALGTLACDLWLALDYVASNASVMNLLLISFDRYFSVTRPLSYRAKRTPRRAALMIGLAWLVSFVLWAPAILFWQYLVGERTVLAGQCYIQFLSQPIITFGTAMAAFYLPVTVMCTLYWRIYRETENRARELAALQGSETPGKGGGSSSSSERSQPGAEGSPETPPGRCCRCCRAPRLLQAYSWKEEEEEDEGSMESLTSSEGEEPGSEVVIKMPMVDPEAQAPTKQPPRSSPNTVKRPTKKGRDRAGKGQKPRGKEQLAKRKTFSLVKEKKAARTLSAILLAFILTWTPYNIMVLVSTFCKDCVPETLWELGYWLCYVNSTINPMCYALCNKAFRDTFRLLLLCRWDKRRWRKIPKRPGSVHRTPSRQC
Summary of the method: as §1

[4] = biological target: T3, human muscarinic M4 receptor (Homo sapiens, UniProt P08173); assay: Alphascreen Surefire phospho-ERK1/2 functional assay, M4; format: cell-based; details: phospho-ERK1/2; for EC50 / % Emax cf. ACh (M4): CHO cells stably expressing human M4; for EC50: read-out: pEC50 M4 (converted); for % Emax cf. ACh (M4) / Emax: relative to ACh; for Emax: CHO, read-out: % Emax cf. ACh (M4), CHO cells stably expressing human M4
T3 construct: expressed in transfected cells
T3 sequence (P08173 1-479): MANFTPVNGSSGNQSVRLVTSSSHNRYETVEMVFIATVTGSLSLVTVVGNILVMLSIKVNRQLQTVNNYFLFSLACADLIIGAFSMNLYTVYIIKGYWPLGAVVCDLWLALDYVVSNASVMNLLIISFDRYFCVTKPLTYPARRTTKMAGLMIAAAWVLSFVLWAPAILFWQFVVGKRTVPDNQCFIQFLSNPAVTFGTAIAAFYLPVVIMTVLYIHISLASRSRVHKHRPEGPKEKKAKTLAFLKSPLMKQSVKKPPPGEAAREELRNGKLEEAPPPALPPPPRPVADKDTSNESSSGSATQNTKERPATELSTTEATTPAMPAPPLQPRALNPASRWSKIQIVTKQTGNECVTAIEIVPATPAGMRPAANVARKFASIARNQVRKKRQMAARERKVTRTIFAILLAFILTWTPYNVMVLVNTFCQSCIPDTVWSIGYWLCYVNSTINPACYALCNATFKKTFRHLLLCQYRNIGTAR

[5] = biological target: T4, human muscarinic M2 receptor (Homo sapiens, UniProt P08172); assay: Alphascreen Surefire phospho-ERK1/2 functional assay, M2; format: cell-based; details: for EC50: CHO cells stably expressing human M2, read-out: pEC50 M2 (converted); for Emax: CHO, read-out: % Emax cf. ACh (M2), CHO cells stably expressing human M2, relative to ACh
T4 sequence (P08172 1-466): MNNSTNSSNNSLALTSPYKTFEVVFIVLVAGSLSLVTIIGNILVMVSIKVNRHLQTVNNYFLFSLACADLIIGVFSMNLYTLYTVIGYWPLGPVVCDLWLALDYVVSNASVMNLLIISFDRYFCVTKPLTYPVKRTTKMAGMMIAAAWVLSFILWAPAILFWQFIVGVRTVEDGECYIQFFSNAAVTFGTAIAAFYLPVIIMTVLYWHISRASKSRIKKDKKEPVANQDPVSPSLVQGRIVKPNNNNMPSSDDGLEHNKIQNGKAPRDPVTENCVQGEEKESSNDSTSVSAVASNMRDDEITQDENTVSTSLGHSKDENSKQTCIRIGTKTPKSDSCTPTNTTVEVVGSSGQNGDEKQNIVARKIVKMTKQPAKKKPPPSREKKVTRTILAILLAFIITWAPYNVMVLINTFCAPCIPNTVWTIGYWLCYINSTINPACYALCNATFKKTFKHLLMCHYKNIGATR
Summary of the method: as §1

EC50 [2] [nM]	Emax [2] [%]	EC50 [3] [nM]	% Emax cf. ACh (M1) [3] [%]	EC50 [4] [nM]	% Emax cf. ACh (M4) [4] [%]	EC50 [5] [nM]	Emax [5] [%]	Emax [3] [%]	Emax [4] [%]	SMILES	d-amphetamine induced hyperactivity [1]
–	–	–	–	–	–	–	–	–	–	CCCCCCOc1nsnc1C1=CCCN(C)C1 [xanomeline]	significantly reduce
> 20000	15	1000	43	200	45	> 20000	15	–	–	CCOC(=O)N1CCC2(CC(N3CCC(C(C)n4cccn4)CC3)C2)C1 (single isomer, unassigned) [2-65 Isomer 2a]	–
> 20000	2	> 20000	–	31.6	–	> 20000	2	19	55	CCOC(=O)N1CCC2(CC(N3CCC(SCc4ccccc4)CC3)C2)C1 (single isomer, unassigned) [2-67 Isomer 2]	–
> 20000	56	> 20000	–	63.1	–	> 20000	20	62	111	CCOC(=O)N1CCC2(CC(N3CCC(N(CC)Cc4cnco4)CC3)C2)C1 (single isomer, unassigned) [2-60 Isomer 2]	–
> 20000	7	794	–	31.6	–	> 20000	11	42	122	CCOC(=O)N1CCC2(CC(N3CCC(N(Cc4ccon4)C4CC4)CC3)C2)C1 (single isomer, unassigned) [2-10 Isomer 2]	–
> 20000	25	316	–	25.1	–	> 20000	12	39	126	CCOC(=O)N1CCC2(CC(N3CCC(N(CC)C(=O)OC)CC3)C2)C1 (single isomer, unassigned) [2-39 Isomer 2]	–
> 20000	26	100	104	79.4	96	5010	42	–	–	CCOC(=O)N1CCC2(CC(N3CCC(N(CC4(OC)CCC4)C(C)=O)CC3)C2)C1 (single isomer, unassigned) [2-30 Isomer 2]	–
> 20000	34	39.8	–	126	–	> 20000	21	85	72	CCOC(=O)N1CCC2(CC(N3CCC(N(Cc4ccccc4)C(C)=O)CC3)C2)C1 (single isomer, unassigned) [2-35 Isomer 2]	–
